Test results reported in patent publication US11072611B2, “Compounds and pharmaceutical compositions thereof for the treatment of inflammatory disorders” (Galapagos NV, priority 2013, dated 2021).

Test system: LPA 18:2
Test: Rat whole blood (plasma) LPA assay
Type: biochemical
Settings: 2 h at 37° C., LPA 18:2 by LC-MS/MS
Experimental: Whole blood is collected from rats or mouse by exsanguinations on sodium heparin tube, then after centrifugation at 3000 rpm for 15 min at 4° C., plasma is stored at −80° C. Compounds are diluted in DMSO in concentration dependent manner then 0.5 μL are dispensed into 96-well plate placed in ice. Plasma is defrosted on ice then 49.5 μL of plasma are added into the well containing 0.5 μL of compound (1% DMSO final). Plates are covered with a lid in polypropylene and incubated at +37° C., 5% CO2, for 2 h under gentle shaking (except controls which are stored at −20° C.).
At the end of the incubation, controls are defrosted in ice and transferred in the incubated plates for LC-MS/MS analysis with a non GLP-validated method. For the analysis, plasma proteins from a 10 μL incubated plates are precipitated with an excess of methanol containing the internal standard, LPA 17:0. After centrifugation, the corresponding supernatant is injected on a C18 column. Analytes are eluted out of the column under isocratic conditions. An API5500 QTRAP mass spectrometer (ABSciex™) is used for the detection of LPA 18:2. No calibration curve is prepared for LPA 18:2, however relative quantities are evaluated based on the peak area.

Q: With `CCc1nc2ccc(C3=CCN(S(C)(=O)=O)CC3)cn2c1N(C)c1nc(-c2ccc(F)cc2)cs1` [Compound 66, N-(2-ethyl-6-(1-(methylsulfonyl)-1,2,3,6-tetrahydropyridin-4-yl)imidazo[1,2-a]pyridin-3-yl)-4-(4-fluorophenyl)-N-methylthiazol-2-amine] as the compound, how does the IC50 read?
A: > 1000 nM

Q: With `CCc1nc2ccc(C3=CCN(S(C)(=O)=O)CC3)cn2c1N(C)c1nc(-c2ccc(OC(F)(F)F)cc2)cs1` [Compound 72, N-(2-ethyl-6-(1-(methylsulfonyl)-1,2,3,6-tetrahydropyridin-4-yl)imidazo[1,2-a]pyridin-3-yl)-N-methyl-4-(4-(trifluoromethoxy)phenyl)thiazol-2-amine] as the compound, how does the IC50 read?
A: > 1000 nM

Q: `CCc1nc2ccc(C3=CCN(S(=O)(=O)CCCO)CC3)cn2c1N(C)c1nc(-c2ccc(F)cc2)cs1` [Compound 75, 3-(4-(2-ethyl-3-((4-(4-fluorophenyl)thiazol-2-yl)(methyl)amino)imidazo[1,2-a]pyridin-6-yl)-5,6-dihydropyridin-1(2H)-ylsulfonyl)propan-1-ol] was tested. Which IC50 did it give?
A: > 1000 nM

Q: How did the IC50 turn out when `CCc1nc2ccc(C3CCN(S(=O)(=O)CCN4CCOCC4)CC3)cn2c1N(C)c1nc(-c2ccc(F)cc2)cs1` [Compound 91] was run?
A: > 1000 nM

Q: How did the IC50 turn out when `CCc1nc2ccc(C3CCN(S(C)(=O)=O)CC3)cn2c1N(C)c1nc(-c2ccc(F)cc2C#N)cs1` [Compound 96, 2-(2-((2-ethyl-6-(1-(methylsulfonyl)piperidin-4-yl)imidazo[1,2-a]pyridin-3-yl)(methyl)amino)thiazol-4-yl)-5-fluorobenzonitrile] was run?
A: 0.01 to 100 nM

Q: For `CCc1nc2ccc(C3CCN(CC(=O)N4CCCC4)CC3)cn2c1N(C)c1nc(-c2ccc(F)cc2)cs1` [Compound 115, 2-(4-(2-ethyl-3-((4-(4-fluorophenyl)thiazol-2-yl)(methyl)amino)imidazo[1,2-a]pyridin-6-yl)piperidin-1-yl)-1-(pyrrolidin-1-yl)ethanone], which IC50 is on record?
A: 0.01 to 100 nM

Q: `CCc1nc2ccc(C3CCN(S(C)(=O)=O)CC3)cn2c1N(C)c1nc(-c2ccc(F)cc2)c(C#N)s1` [Compound 136, 2-((2-ethyl-6-(1-(methylsulfonyl)piperidin-4-yl)imidazo[1,2-a]pyridin-3-yl)(methyl)amino)-4-(4-fluorophenyl)thiazole-5-carbonitrile] was tested. Which IC50 did it give?
A: 0.01 to 100 nM

Q: How did the IC50 turn out when `CCc1nc2ccc(N3CCN(CC(=O)N4CC(O)C4)CC3)cn2c1N(C)c1nc(-c2ccc(F)cc2)c(C#N)s1` [Compound 138, 2-((2-ethyl-6-(4-(2-(3-hydroxyazetidin-1-yl)-2-oxoethyl)piperazin-1-yl)imidazo[1,2-a]pyridin-3-yl)(methyl)amino)-4-(4-fluorophenyl)thiazole-5-carbonitrile] was run?
A: 0.01 to 100 nM

Q: Which IC50 does the source give for `CCc1nc2ccc(N3CCN(CC(=O)N(C)C)CC3)cn2c1N(C)c1nc(-c2ccc(F)cc2)c(C#N)s1` [Compound 140, 2-(4-(3-((5-cyano-4-(4-fluorophenyl)thiazol-2-yl)(methyl)amino)-2-ethylimidazo[1,2-a]pyridin-6-yl)piperazin-1-yl)-N,N-dimethylacetamide] here?
A: 0.01 to 100 nM

Q: With `CCc1nc2ccc(C3CCN(CC(=O)N4CC(O)C4)CC3)cn2c1N(C)c1nc(-c2ccc(F)cc2)c(C#N)s1` [Compound 141, 2-((2-ethyl-6-(1-(2-(3-hydroxyazetidin-1-yl)-2-oxoethyl)piperidin-4-yl)imidazo[1,2-a]pyridin-3-yl)(methyl)amino)-4-(4-fluorophenyl)thiazole-5-carbonitrile] as the compound, how does the IC50 read?
A: 0.01 to 100 nM

Q: How did the IC50 turn out when `CCc1nc2ccc(C3CCN(CC(=O)N4CC[C@@H](O)C4)CC3)cn2c1N(C)c1nc(-c2ccc(F)cc2)c(C#N)s1` [Compound 142, (R)-2-((2-ethyl-6-(1-(2-(3-hydroxypyrrolidin-1-yl)-2-oxoethyl)piperidin-4-yl)imidazo[1,2-a]pyridin-3-yl)(methyl)amino)-4-(4-fluorophenyl)thiazole-5-carbonitrile] was run?
A: 0.01 to 100 nM

Q: With `CCc1nc2ccc(C3CCN(CC(=O)N4CC[C@H](O)C4)CC3)cn2c1N(C)c1nc(-c2ccc(F)cc2)c(C#N)s1` [Compound 143, (S)-2-((2-ethyl-6-(1-(2-(3-hydroxypyrrolidin-1-yl)-2-oxoethyl)piperidin-4-yl)imidazo[1,2-a]pyridin-3-yl)(methyl)amino)-4-(4-fluorophenyl)thiazole-5-carbonitrile] as the compound, how does the IC50 read?
A: 0.01 to 100 nM

Q: How did the IC50 turn out when `CCc1nc2ccc(C3CCN(CC(=O)N4CC(CO)C4)CC3)cn2c1N(C)c1nc(-c2ccc(F)cc2)c(C#N)s1` [Compound 144, 2-((2-ethyl-6-(1-(2-(3-(hydroxymethyl)azetidin-1-yl)-2-oxoethyl)piperidin-4-yl)imidazo[1,2-a]pyridin-3-yl)(methyl)amino)-4-(4-fluorophenyl)thiazole-5-carbonitrile] was run?
A: 0.01 to 100 nM

Q: `CCc1nc2ccc(C3CCN(CC(=O)N(C)C)CC3)cn2c1N(C)c1nc(-c2ccc(F)cc2)c(C#N)s1` [Compound 145, 2-(4-(3-((5-cyano-4-(4-fluorophenyl)thiazol-2-yl)(methyl)amino)-2-ethylimidazo[1,2-a]pyridin-6-yl)piperidin-1-yl)-N,N-dimethylacetamide] was tested. Which IC50 did it give?
A: 0.01 to 100 nM

Q: For `CCc1nc2ccc(C3CCN(S(=O)(=O)CCCN(C)C)CC3)cn2c1N(C)c1nc(-c2ccc(F)cc2)c(CO)s1` [Compound 149, (2-((6-(1-(3-(dimethylamino)propylsulfonyl)piperidin-4-yl)-2-ethylimidazo[1,2-a]pyridin-3-yl)(methyl)amino)-4-(4-fluorophenyl)thiazol-5-yl)], which IC50 is on record?
A: > 1000 nM

Q: With `CCc1nc2ccc(C3CCN(CC(=O)N4CC(O)C4)CC3)cn2c1N(C)c1nc(-c2ccc(F)cc2)c(CO)s1` [Compound 156, 2-(4-(2-ethyl-3-((4-(4-fluorophenyl)-5-(hydroxymethyl)thiazol-2-yl)(methyl)amino)imidazo[1,2-a]pyridin-6-yl)piperidin-1-yl)-1-(3-hydroxyazetidin-1-yl)ethanone] as the compound, how does the IC50 read?
A: > 1000 nM

Q: With `CCc1nc2ccc(C3CCN(S(C)(=O)=O)CC3)cn2c1N(C)c1nc(-c2ccc(F)cc2)c(C(=O)C(F)(F)F)s1` [Compound 160, 1-(2-((2-ethyl-6-(1-(methylsulfonyl)piperidin-4-yl)imidazo[1,2-a]pyridin-3-yl)(methyl)amino)-4-(4-fluorophenyl)thiazol-5-yl)-2,2,2-trifluoroethanone] as the compound, how does the IC50 read?
A: 0.01 to 100 nM

Q: `CN(C)C(=O)CN1CCC(c2ccc3nc(CCC#N)c(N(C)c4nc(-c5ccc(F)cc5)cs4)n3c2)CC1` [Compound 174, 2-(4-(2-(2-cyanoethyl)-3-((4-(4-fluorophenyl)thiazol-2-yl)(methyl)amino)imidazo[1,2-a]pyridin-6-yl)piperidin-1-yl)-N,N-dimethylacetamide] was tested. Which IC50 did it give?
A: 0.01 to 100 nM

Q: With `CN(c1nc(-c2ccc(F)cc2)c(CO)s1)c1c(CCC#N)nc2ccc(C3CCN(S(C)(=O)=O)CC3)cn12` [Compound 175, 3-(3-((4-(4-fluorophenyl)-5-(hydroxymethyl)thiazol-2-yl)(methyl)amino)-6-(1-(methylsulfonyl)piperidin-4-yl)imidazo[1,2-a]pyridin-2-yl)propanenitrile] as the compound, how does the IC50 read?
A: 0.01 to 100 nM

Q: With `CCc1nc2ccc(N3CCN(CCO)CC3)cn2c1N(C)c1nc(-c2ccc(F)cc2)cs1` [Compound 180, 2-(4-(2-ethyl-3-((4-(4-fluorophenyl)thiazol-2-yl)(methyl)amino)imidazo[1,2-a]pyridin-6-yl)piperazin-1-yl)ethanol] as the compound, how does the IC50 read?
A: > 1000 nM

Q: Which IC50 does the source give for `CCc1nc2ccc(N3CCS(=O)(=O)CC3)cn2c1N(C)c1nc(-c2ccc(F)cc2)cs1` [Compound 182, 4-(2-ethyl-3-((4-(4-fluorophenyl)thiazol-2-yl)(methyl)amino)imidazo[1,2-a]pyridin-6-yl)-thiomorpholine 1,1-dioxide] here?
A: > 1000 nM

Q: How did the IC50 turn out when `CCc1nc2ccc(N3CCN(S(C)(=O)=O)CC3)cn2c1N(C)c1nc(-c2ccc(Cl)cc2)ns1` [Compound 188, 3-(4-chlorophenyl)-N-(2-ethyl-6-(4-(methylsulfonyl)piperazin-1-yl)imidazo[1,2-a]pyridin-3-yl)-N-methyl-1,2,4-thiadiazol-5-amine] was run?
A: > 1000 nM

Q: Which IC50 does the source give for `CCc1nc2ccc(N3CCN(Cc4cnc[nH]4)CC3)cn2c1N(C)c1nc(-c2ccc(F)cc2)cs1` [Compound 192, N-(6-(4-((1H-imidazol-5-yl)methyl)piperazin-1-yl)-2-ethylimidazo[1,2-a]pyridin-3-yl)-4-(4-fluorophenyl)-N-methylthiazol-2-amine] here?
A: > 1000 nM

Q: For `CCc1nc2ccc(N3CCN(C(=O)[C@H](C)O)CC3)cn2c1N(C)c1nc(-c2ccc(F)cc2)cs1` [Compound 203, (S)-1-(4-(2-ethyl-3-((4-(4-fluorophenyl)thiazol-2-yl)(methyl)amino)imidazo[1,2-a]pyridin-6-yl)piperazin-1-yl)-2-hydroxypropan-1-one], which IC50 is on record?
A: > 1000 nM

Q: Which IC50 does the source give for `CCc1nc2ccc(N3CCOC3=O)cn2c1N(C)c1nc(-c2ccc(Cl)cc2)cs1` [Compound 206, 3-(3-((4-(4-chlorophenyl)thiazol-2-yl)(methyl)amino)-2-ethylimidazo[1,2-a]pyridin-6-yl)oxazolidin-2-one] here?
A: > 1000 nM

Q: `CCc1nc2ccc(N3CCN(CCO)CC3)cn2c1N(C)c1nc(-c2ccc(Cl)cc2)cs1` [Compound 212, 2-(4-(3-((4-(4-chlorophenyl)thiazol-2-yl)(methyl)amino)-2-ethylimidazo[1,2-a]pyridin-6-yl)piperazin-1-yl)ethanol] was tested. Which IC50 did it give?
A: > 1000 nM

Q: With `CCc1nc2ccc(N3CCS(=O)(=O)CC3)cn2c1N(C)c1nc(-c2ccc(Cl)cc2)cs1` [Compound 213, 4-(2-ethyl-3-((4-(4-chlorophenyl)thiazol-2-yl)(methyl)amino)imidazo[1,2-a]pyridin-6-yl)-thiomorpholine-1,1-dioxide] as the compound, how does the IC50 read?
A: > 1000 nM
